According to patent publication US12168803B2, “Compositions and methods for screening and diagnosis of prostate cancer” (DANA-FARBER CANCER INSTITUTE, INC., priority 2015, dated 2024):

How the values were obtained:
[1] = tested on: docetaxel-resistant prostate cancer; conditions: docetaxel-resistant patients; cited from earlier work
[2] = tested on: LAPC4 cells; assay: Cell growth / viability (Trypan Blue exclusion) of LAPC4 cells; format: cell-based, human
Description: (§1) To interrogate the differential sensitivity to docetaxel of prostate cancer cells, two prostate cancer cell lines, LNCaP and LAPC4, were compared.
(§2) LNCaP-Abl cell line was provided by Zoran Culig (Innsbruck Medical University). LNCaP-C42 cell line was obtained from ViroMed Laboratories (Minneapolis). LNCaP-104R2 cell line was provided by Shutsung Liao (University of Chicago), and LAPC-4 cell line was provided by Charles Sawyers (Memorial Sloan Kettering Cancer Center). These cells were maintained with 10% fetal bovine serum (FBS) (LNCaP, LNCaP-C42, LMCaP-AI, VCAP, 22RV1, LAPC4, PC3, and DU145) or 10% charcoal-stripped serum (CSS) (LNCaP-Abl, and LNCaP-104R2) at 37 c in 5% CO2.

[3] = tested on: LNCaP cells; assay: Cell growth / viability (Trypan Blue exclusion) of LNCaP cells; format: cell-based, human
Description: as §1, §2

[4] = tested on: LAPC4 cells; conditions: LAPC4, upon docetaxel treatment
Description: as §1

[5] = tested on: metastatic castration-resistant prostate cancer (mCRPC); conditions: first-line; cited from earlier work
[6] = tested on: metastatic hormone sensitive prostate cancer (mHSPC); conditions: docetaxel given at the time of starting ADT for mHSPC; cited from earlier work

CO[C@H]1C(=O)[C@]2(C)[C@@H](OC)C[C@H]3OC[C@@]3(OC(C)=O)[C@H]2[C@H](OC(=O)c2ccccc2)[C@]2(O)C[C@H](OC(=O)[C@H](O)[C@@H](NC(=O)OC(C)(C)C)c3ccccc3)C(C)=C1C2(C)C [cabazitaxel]
improvement of median OS over mitoxantrone [1]: 2.4 months
median OS [1]: 15.1 months

C[C@]12CCC(=O)C[C@@H]1CC[C@@H]1[C@@H]2CC[C@]2(C)[C@@H](O)CC[C@@H]12 [DHT, dihydro-testosterone]
impact of DHT treatment on docetaxel sensitivity ([2]; LAPC4): dose-dependent
effect of DHT on viability in docetaxel ([2]; LAPC4, 0.01 nM to 0.1 mM docetaxel, Trypan Blue exclusion): markedly increased
effect of 10 nM DHT on cell growth in the presence of docetaxel ([2]; LAPC4, 10 nM docetaxel): restoration of cell growth
effect of DHT on viability against docetaxel ([3]; LNCaP, 0.01 nM to 0.1 mM docetaxel, Trypan Blue exclusion): not significantly affected
effect of DHT on PARP cleavage [4]: specifically reduced

O=C1c2c(O)ccc(O)c2C(=O)c2c(NCCNCCO)ccc(NCCNCCO)c21 [mitoxantrone]
median OS [1]: 12.7 months

CNC(=O)c1ccc(N2C(=S)N(c3ccc(C#N)c(C(F)(F)F)c3)C(=O)C2(C)C)cc1F [enzalutamide]
effect on viability of cells treated with docetaxel in DHT supplemented media ([2]; LAPC4): substantially reduced
effect on docetaxel sensitivity in the presence of DHT ([2]; LAPC4, 10 nM docetaxel, DHT): resensitized the cells to docetaxel

CC(=O)O[C@@]12CO[C@@H]1C[C@H](O)[C@@]1(C)C(=O)[C@H](O)C3=C(C)[C@@H](OC(=O)[C@H](O)[C@@H](NC(=O)OC(C)(C)C)c4ccccc4)C[C@@](O)([C@@H](OC(=O)c4ccccc4)[C@H]21)C3(C)C [docetaxel]
IC20 ([2]; Homo sapiens, LAPC4 cells, growth, read-out: IC20 concentration): 5 nM
sensitivity of cells to docetaxel ([2]; LAPC4, 10 nM docetaxel, absence of DHT): sensitive
IC20 ([3]; Homo sapiens, LNCaP cells, growth, read-out: IC20 concentration): 0.5 nM
sensitivity of cells to docetaxel ([3]; LNCaP, 10 nM docetaxel, absence of DHT): sensitive
prolongation of median overall survival (OS) over mitoxantrone [5]: ~2 month
OS [6]: 57 months
improvement of OS [6]: 13 months
